Literature values in patent US20250331549A1, “AEROSOL-GENERATING ARTICLE WITH AVERSIVE AGENT” (PHILIP MORRIS PRODUCTS S.A., priority 2022, published 2025).
Where a name gives a salt, the structure may show the parent alone. Read-outs that look alike come from different tables or passages of the source.

[1] = reciprocal of the dilution that still has a bitter taste, known bittering agents, Table 1
[2] = quinine hydrochloride value is the set reference, denatonium benzoate value is estimated

Molecule	Bitterness value [1]	Bitterness value [2]
CC1=C[C@H]2[C@H]3[C@H](C(C)=C4[C@H]5OC(=O)[C@@H](C)[C@@H]5CC[C@](C)(O)[C@@H]43)[C@@]13[C@@H]2[C@@](C)(O)CC[C@H]1[C@H](C)C(=O)O[C@@H]13 [Absinthin, absinthin]	3,000,000	–
C[C@@]12C[C@@H](c3ccoc3)OC(=O)[C@@H]1CC[C@]1(C)[C@H]2[C@@H]2C=C[C@@]1(O)C(=O)O2 [Columbin, columbin]	60,000,000	–
CC[N+](CC)(CC(=O)Nc1c(C)cccc1C)Cc1ccccc1 [Denatonium benzoate, denatonium benzoate]	>100,000,000	over 100,000,000
COC1=C[C@@H](C)[C@@H]2C[C@H]3OC(=O)C[C@H]4C(C)=C(OC)C(=O)[C@H]([C@@]2(C)C1=O)[C@@]34C [Quassin, quassin]	13,000,000	–
C=C[C@H]1C[N@@]2CC[C@H]1C[C@H]2[C@H](O)c1ccnc2ccc(OC)cc12 [Quinine hydrochloride, quinine hydrochloride, reference compound]	200,000	200,000
amarogentin	58,000,000	–
